Read-outs that look alike come from different tables or passages of the source.
How the values were obtained:
FLK-1 receptor = assay: Cellular-based assay of receptor phosphorylation following VEGF (FLK-1 ELISA); assay type: cell-based
[1] = tested on: endothelial cells induced by VEGF; assay: In vitro proliferation of endothelial cells induced by VEGF (HUV-EC-C assay); assay type: cell-based, human
Description: The following protocol may also be used to measure a compound's activity against PDGF-R, FGF-R, VEGF, aFGF or Flk-1/KDR, all of which are naturally expressed by HUV-EC cells.
1. Wash and trypsinize HUV-EC-C cells (human umbilical vein endothelial cells, (American Type Culture Collection; catalogue no. 1730 CRL). Wash with Dulbecco's phosphate-buffered saline (D-PBS; obtained from Gibco BRL; catalogue no. 14190-029) 2 times at about 1 ml/10 cm^2 of tissue culture flask. Trypsinize with 0.05% trypsin-EDTA in non-enzymatic cell dissociation solution (Sigma Chemical Company; catalogue no. C-1544). The 0.05% trypsin is made by diluting 0.25% trypsin/1 mM EDTA (Gibco; catalogue no. 25200-049) in the cell dissociation solution. Trypsinize with about 1 ml/25-30 cm^2 of tissue culture flask for about 5 minutes at 37° C. After cells have detached from the flask, add an equal volume of assay medium and transfer to a 50 ml sterile centrifuge tube (Fisher Scientific; catalogue no. 05-539-6).
2. Wash the cells with about 35 ml assay medium in the 50 ml sterile centrifuge tube by adding the assay medium, centrifuge for 10 minutes at approximately 200×g, aspirate the supernatant, and resuspend with 35 ml D-PBS. Repeat the wash two more times with D-PBS, resuspend the cells in about 1 ml assay medium/15 cm^2 of tissue culture flask. […]

[2] = tested on: a variety of tumor cell lines; assay: Direct inhibitory effect on tumor cell lines in vitro; assay type: cell-based; settings: concentrations up to 50 μM
[3] = tested on: a variety of tumor cell lines subcutaneously implanted; assay: Subcutaneous tumor implants in immunocompromised mice; assay type: in vivo
Description: (§1) The ability of human tumors to grow as xenografts in athymic mice (e.g., Balb/c, nu/nu) provides a useful in vivo model for studying the biological response to therapies for human tumors. Since the first successful xenotransplantation of human tumors into athymic mice, (Rygaard and Povlsen, 1969, Acta Pathol. Microbial. Scand. 77:758-760), many different human tumor cell lines (e.g., mammary, lung, genitourinary, gastrointestinal, head and neck, glioblastoma, bone, and malignant melanomas) have been transplanted and successfully grown in nude mice. The following assays may be used to determine the level of activity, specificity and effect of the different compounds of the present invention. […]
(§2) Cell lines are grown in appropriate medium (for example, MEM, DMEM, Ham's F10, or Ham's F12 plus 5%-10% fetal bovine serum (FBS) and 2 mM glutamine (GLN)). […] All cell lines are routinely subcultured twice a week and are negative for mycoplasma as determined by the Mycotect method (Gibco).
(§3) Cells are harvested at or near confluency with 0.05% Trypsin-EDTA and pelleted at 450×g for 10 min. […] Tumor growth is measured over 3 to 6 weeks using venier calipers. Tumor volumes are calculated as a product of length×width×height unless otherwise indicated. P values are calculated using the Students t-test. […]

human melanoma cells = assay: Dose response study, human melanoma cells subcutaneous in athymic mice; assay type: in vivo; settings: daily administration, doses as low as 1 mg/kg/day
Description: as §1, §2, §3

tumor growth = assay: Less frequent intraperitoneal dosing studies in athymic mice; assay type: in vivo; settings: for tumor growth inhibition: intraperitoneal
Description: as §1, with “invention. Three general types of assays are useful for evaluating compounds: cellular/catalytic, cellular/biological and in vivo. The object of the cellular/catalytic assays is to determine the effect of a compound on the ability of a TK to phosphorylate tyrosines on a known substrate in a cell. The object of the cellular/biological assays is to determine the effect of a compound on the biological response stimulated by a TK in a cell. The object of the in vivo assays is to determine the effect of a compound in an animal model of a particular disorder such as cancer.” for “invention.”
as §2, §3

[4] = tested on: tumor cells implanted under the serosa of the colon; assay: Tumor cells surgically implanted under the serosa of the colon; assay type: in vivo, mice
Description: 8 week old nude mice (female) (Simonsen Inc.) are used as experimental animals. Implantation of tumor cells can be performed in a laminar flow hood. For anesthesia, Xylazine/Ketamine Cocktail (100 mg/kg ketamine and 5 mg/kg Xylazine) are administered intraperitoneally. A midline incision is done to expose the abdominal cavity (approximately 1.5 cm in length) to inject 10^7 tumor cells in a volume of 100 μl medium. The cells are injected either into the duodenal lobe of the pancreas or under the serosa of the colon. The peritoneum and muscles are closed with a 6-0 silk continuous suture and the skin is closed by using wound clips. Animals are observed daily.
After 2-6 weeks, depending on gross observations of the animals, the mice are sacrificed, and the local tumor metastases to various organs (lung, liver, brain, stomach, spleen, heart, muscle) are excised and analyzed (measurement of tumor size, grade of invasion, immunochemistry, in situ hybridization determination, etc.).

[5] = tested on: ATP binding site of the receptor tyrosine kinase; assay: Washout experiments in vitro
[6] = In vivo intravenous pharmacokinetics, mice
[7] = In vivo intravenous pharmacokinetics, rats
[8] = In vivo intravenous pharmacokinetics, dogs
[9] = Subchronic toxicokinetic study (28 day toxicity study), rats; assay type: in vivo
[10] = Subchronic toxicokinetic study (28 day toxicity study), dogs; assay type: in vivo
[11] = Whole body autoradiography and excretion after intravenous injection; assay type: in vivo; settings: in 24 hours, 14C-labeled
[12] = tested on: β-450 liver enzymes (CYP1A2 and CYP3A4); assay: In vitro metabolism studies; assay type: in vitro ADME
[13] = Phase I dose escalation studies, toxicity; assay type: in vivo; settings: patients treated with up to 52 weeks of treatment
[14] = Phase 1 study pharmacokinetics in patients with advanced malignancies; settings: for half-life: plasma, intravenous
[15] = tested on: metastatic colorectal cancer; settings: single agent; cited from earlier work
[16] = cited from earlier work
[17] = tested on: advanced metastatic colorectal cancer; settings: cited from earlier work

Cc1cc(C)c(/C=C2\C(=O)Nc3ccccc32)[nH]1 [3-[(2,4-dimethylpyrrol-5-yl)methylidenyl]-2-indolinone]
receptor phosphorylation that follows the interaction of VEGF with its receptor (FLK-1 receptor): inhibit the receptor phosphorylation | IC50 ([1]; Homo sapiens, Endothelial cell, read-out: IC50, inhibition of in vitro proliferation of endothelial cells induced by VEGF): ~70 nM | exposure to drug after which detectable activity is first observed ([1]; time-dependent increase in potency): 5 min | direct inhibitory effects on tumor cell lines [2]: no direct inhibitory effects | suppression of tumor growth with delayed administration ([3]; administration delayed until tumors approximately 50 mm^3, versus start on Day 1): equivalent efficacy | inhibition of tumor growth ([3]; daily intraperitoneal dosing 12.5-25 mg/kg/day for 28 days): 30-80% | inhibition of human melanoma cells (human melanoma cells): dose-dependent inhibition | tumor growth inhibition and toxicity with interval dosing (tumor growth; dosing at 3 to 4 day intervals): sufficient to inhibit tumor growth without toxicity | tumor growth inhibition (tumor growth; daily dosing): 68% | tumor growth inhibition (tumor growth; twice weekly dosing for four weeks): 77% | growth of tumor cells implanted under the serosa of the colon ([4]; daily administration 25 mg/kg/day): significantly inhibit the growth | tumor vascularization ([4]; pale appearance of tumors in treated animals): decreased vascularization | target half-life [5]: 96 h | elimination of the parent compound from the circulation [6]: rapid elimination | elimination of the parent compound from the circulation ([7]; intravenous): rapid elimination | elimination half-life versus dose ([7]; intravenous 29.5-97.9 mg/m^2): linearly increases as the dose increased | increase of AUC ([7]; intravenous 29.5-97.9 mg/m^2, with a 3-fold increase in dose): 10 fold | elimination of the parent compound from the circulation [8]: rapid elimination | accumulation in plasma upon repeated administration [9]: did not accumulate in plasma | accumulation in plasma upon repeated administration [10]: did not accumulate in plasma | excreted in feces [11]: 72% | excreted in urine [11]: 16% | total dose recovered [11]: 92 % of the total administered dose | metabolizing enzymes [12]: metabolized via β-450 liver enzymes, most probably via CYP1A2 and CYP3A4 | cumulative toxicity [13]: no cumulative toxicity was observed | increase of the rate of clearance ([14]; after eight infusions, all patients): 50-300% | total distributive volume ([14]; calculated by a one-compartment model): 53.6 ± 11.3 L | clearance versus dose ([14]; doses 4.4-190 mg/m^2): independent of dose | AUC and CMAX versus dose ([14]; doses tested in humans to date): increase linearly with dose | individual clearance calculated based on BSA ([14]; human, in vivo): 41.8±22.1 L/hour/m2 | half-life ([14]; human, alpha half-life, mean, doses 4.4-190 mg/m^2): 5.8 ± 1.9 min | half-life ([14]; human, beta half-life or elimination phase, mean, doses 4.4-190 mg/m^2): 43.4 ± 21.9 min | half-life ([14]; human, beta half-life or elimination phase, range, doses 4.4-190 mg/m^2): 10 to 111 min | half-life ([14]; human, half-life in humans, doses 4.4-190 mg/m^2, preliminary): ~60 min

O=c1[nH]cc(F)c(=O)[nH]1 [fluorouracil, 5-fluoro-2,4 (1H,3H)-pyrimidinedione]
median survival [15]: six | response rate [15]: about 15% | excreted in urine ([16]; in vivo): Less than 10% | plasma levels ([16]; within 2 hours, intravenous bolus 370 to 720 mg/m^2): below 1 μM | median survival time ([17]; fluorouracil alone 500 mg/m^2): 7.7 months | response rate ([17]; fluorouracil alone 500 mg/m^2 daily for 5 days every 28-35 days): 10%
